Data as given in paper PMC12064818, “A general assay platform to study protein pharmacology using ligand-dependent structural dynamics” (Nature Communications, 2025).

What was measured:
[1] = target: FLuc-N-HiBiT (firefly luciferase) (Photinus pyralis, UniProt P08659, form not given/L550V); test: SDR assay, FLuc-N-HiBiT; conditions: for % Activity (max response) / % Activity (max response, + ATP) / % Activity (max response, - ATP): SDR; for % Activity (max response, + ATP) / % Activity (max response, - ATP) / pSDR50 (clade A'): substituted indoline (clade A')
FLuc-N-HiBiT (firefly luciferase), sequence (P08659 2-550 L550V, form open): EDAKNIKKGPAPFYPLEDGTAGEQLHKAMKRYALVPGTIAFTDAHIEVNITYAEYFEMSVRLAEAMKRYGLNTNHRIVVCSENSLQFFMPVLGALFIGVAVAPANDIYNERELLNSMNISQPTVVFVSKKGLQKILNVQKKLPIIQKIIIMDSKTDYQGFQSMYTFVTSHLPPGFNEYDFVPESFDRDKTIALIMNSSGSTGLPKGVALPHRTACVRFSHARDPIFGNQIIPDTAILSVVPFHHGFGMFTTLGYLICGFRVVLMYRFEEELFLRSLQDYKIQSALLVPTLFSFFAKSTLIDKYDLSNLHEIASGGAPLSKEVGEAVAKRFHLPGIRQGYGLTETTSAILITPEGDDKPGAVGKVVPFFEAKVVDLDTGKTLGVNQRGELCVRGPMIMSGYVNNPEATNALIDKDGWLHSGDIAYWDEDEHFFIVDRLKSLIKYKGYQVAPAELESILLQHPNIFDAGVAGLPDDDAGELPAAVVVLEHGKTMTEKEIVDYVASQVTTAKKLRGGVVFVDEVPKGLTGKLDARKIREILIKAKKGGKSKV

[2] = target: T1, FLuc-C-HiBiT (Photinus pyralis, UniProt P08659); test: biochemical; conditions: enzyme activity, 10 uM ATP; read-out: IC50 or SDR50 (mM) / FLuc E
T1 construct: firefly luciferase with C-terminal HiBiT tag, E. coli expressed
T1 sequence (P08659 whole entry, looked up): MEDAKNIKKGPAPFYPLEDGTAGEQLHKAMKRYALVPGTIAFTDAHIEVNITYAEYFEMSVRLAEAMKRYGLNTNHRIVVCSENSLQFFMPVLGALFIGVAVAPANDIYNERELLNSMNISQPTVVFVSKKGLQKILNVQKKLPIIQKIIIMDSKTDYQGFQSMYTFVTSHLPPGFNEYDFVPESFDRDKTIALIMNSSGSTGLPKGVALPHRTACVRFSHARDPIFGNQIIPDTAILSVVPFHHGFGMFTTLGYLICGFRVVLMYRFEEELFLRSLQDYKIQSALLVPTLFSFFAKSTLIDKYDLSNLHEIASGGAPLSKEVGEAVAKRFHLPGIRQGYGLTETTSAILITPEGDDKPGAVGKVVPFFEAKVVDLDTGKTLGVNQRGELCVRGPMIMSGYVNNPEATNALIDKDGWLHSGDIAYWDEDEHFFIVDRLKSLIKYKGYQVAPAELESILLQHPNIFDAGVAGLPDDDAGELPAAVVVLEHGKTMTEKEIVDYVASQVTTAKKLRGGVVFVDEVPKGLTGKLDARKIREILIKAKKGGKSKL

[3] = target: T2, ABL1-N-HiBiT kinase domain (Homo sapiens, UniProt P00519); test: SDR assay, ABL1-N-HiBiT; conditions: ABL1-N-HiBiT qHTS, SDR assay, average maximal response
T2 sequence (P00519 233-500): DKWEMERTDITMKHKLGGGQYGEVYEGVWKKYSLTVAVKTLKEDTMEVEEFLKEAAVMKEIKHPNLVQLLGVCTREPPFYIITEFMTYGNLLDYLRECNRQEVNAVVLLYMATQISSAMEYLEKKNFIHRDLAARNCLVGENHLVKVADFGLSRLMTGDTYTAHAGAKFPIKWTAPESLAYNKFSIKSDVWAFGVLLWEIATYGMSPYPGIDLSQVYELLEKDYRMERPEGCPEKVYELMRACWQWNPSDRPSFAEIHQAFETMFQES

[4] = target: PKA-N-HiBiT (Homo sapiens, UniProt P17612); test: SDR assay, PKA-N-HiBiT
[5] = ATP-independent imidazo[2,1-b]thiazole (clade O) series
[6] = ATP-independent pyrazolo pyrimidine (clade P)

| Structure (SMILES) | IC50 [2] [nM] | % Activity (max response, + ATP) ([1]; + ATP) [%] | % Activity (max response, - ATP) ([1]; - ATP) [%] | pSDR50 (clade A') ([1]; + ATP) | pSDR50 (clade A') ([1]; - ATP) | further results |
| --- | --- | --- | --- | --- | --- | --- |
| Fc1ccc(Cc2cn3cc(-c4ccc(F)cc4)nc3s2)cc1 [Compound 34] |  |  |  |  |  | pSDR50 (clade O) [1, 5]: 6.28; % Activity (max response) [1, 5]: 22.33% |
| CCOC(=O)C1CCN(C(=O)c2cccc3c2CCN3C(=O)Nc2ccccc2)CC1 [NCGC00430100-01] | 1760 | 124.90 | 16.28 | 5.52 |  |  |
| Clc1ccc(-c2cn3cc(Cc4ccccc4)sc3n2)cc1 [Compound 4] |  |  |  |  |  | pSDR50 (clade O) [1, 5]: 5.57; % Activity (max response) [1, 5]: 64.57% |
| O=C(NCc1ccco1)c1cccc2c1CCN2C(=O)Nc1ccc(F)cc1 [NCGC00430142-01] | 1110 | 118.20 | 37.02 | 5.76 | 3.81 |  |
| CNC(=O)c1cccc2c1CCN2C(=O)Nc1ccc(C)cc1 [NCGC00430160-01] | 351 | 123.10 | 78.58 | 6.37 | 4.88 |  |
| CC1CCCN(c2ncnc3c2cnn3-c2ccc(Cl)cc2)C1 (stereo not shown) [Compound 383] |  |  |  |  |  | pSDR50 (clade P) [1, 6]: 5.51; % Activity (max response) [1, 6]: 116.20% |
| COc1ccc(NC(=O)N2CCc3c(C(=O)NCc4ccncc4)cccc32)cc1 [NCGC00430180-01] | 624 | 125.10 | 68.63 | 6.06 | 4.73 |  |
| CN(C)CCNC(=O)c1cccc2c1CCN2C(=O)Nc1ccccc1 [NCGC00430150-01] | 700 | 120.00 | 17.07 | 5.93 |  |  |
| Cc1cccc(NC(=O)N2CCc3c(C(=O)N4CCN(C)CC4)cccc32)c1 [NCGC00430118-01] | 1760 | 120.00 | 22.45 | 5.59 | 3.92 |  |
| Cc1ccc(NC(=O)N2CCc3c(C(=O)NCCc4ccccn4)cccc32)cc1 [NCGC00430168-01] | 4420 | 131.70 | 51.01 | 4.89 | 4.36 |  |
| CCCNC(=O)c1cccc2c1CCN2C(=O)Nc1cccc(C)c1 [NCGC00430116-01] | 2480 | 115.10 | 34.94 | 5.48 | 3.57 |  |
| Fc1ccc(-c2cn3cc(Cc4ccccc4Cl)sc3n2)cc1 [Compound 30] |  |  |  |  |  | pSDR50 (clade O) [1, 5]: 5.26; % Activity (max response) [1, 5]: 49.79% |
| Fc1ccc(-c2cn3cc(Cc4ccccc4)sc3n2)cc1 [Compound 10] |  |  |  |  |  | pSDR50 (clade O) [1, 5]: 5.73; % Activity (max response) [1, 5]: 39.11% |
| COc1ccc(NC(=O)N2CCc3c(C(=O)N(C)C)cccc32)cc1 [NCGC00430182-01] | 111 | 126.00 | 37.35 | 6.80 | 4.62 |  |
| O=C(NCCc1cccs1)c1cccc2c1CCN2C(=O)Nc1ccc(F)cc1 [NCGC00430196-01] | 785 | 108.30 | 19.81 | 5.86 |  |  |
| Clc1ccccc1Cc1cn2cc(-c3ccccc3)nc2s1 [Compound 0] |  |  |  |  |  | pSDR50 (clade O) [1, 5]: 5.98; % Activity (max response) [1, 5]: 50.48% |
| O=C(O)c1cccc2c1CCN2C(=O)Nc1ccc(F)cc1 [NCGC00432687-01] | 3.51 | 127.90 | 102.18 | 8.36 | 4.92 |  |

| Structure (SMILES) | IC50 [2] [nM] | % Activity (max response, + ATP) ([1]; + ATP) [%] | % Activity (max response, - ATP) ([1]; - ATP) [%] | pSDR50 (clade A') ([1]; + ATP) | pSDR50 (clade A') ([1]; - ATP) | further results |
| --- | --- | --- | --- | --- | --- | --- |
| CN(C)C(=O)c1cccc2c1CCN2C(=O)Nc1ccc(F)cc1 [NCGC00430198-01] | 3940 | 116.90 | 14.79 | 5.19 |  |  |
| CCN1CCN(CCNC(=O)c2cccc3c2CCN3C(=O)Nc2ccc(C)cc2)CC1 [NCGC00430114-01] | 1110 | 125.50 | 93.19 | 5.79 | 4.11 |  |
| Cc1cccc(NC(=O)N2CCc3c(C(=O)NC(C)(C)C)cccc32)c1 [NCGC00430124-01] | 8810 | 30.08 | 45.88 | 3.69 | 4.31 |  |
| Fc1ccccc1Cc1cn2cc(-c3ccc(Cl)cc3)nc2s1 [Compound 6] |  |  |  |  |  | pSDR50 (clade O) [1, 5]: 5.50; % Activity (max response) [1, 5]: 29.23% |
| COc1ccc(NC(=O)c2cccc3c2CCN3C(=O)Nc2ccc(F)cc2)c(C)c1 [NCGC00430188-01] | 556 | 119.00 | 13.12 | 6.16 |  |  |
| COc1ccc(NC(=O)N2CCc3c(C(=O)NCCCN4CCCC4=O)cccc32)cc1 [NCGC00430130-01] | 248 | 129.70 | 57.00 | 6.47 | 4.44 |  |
| CN(Cc1ccco1)C(=O)c1cccc2c1CCN2C(=O)Nc1ccccc1 [NCGC00430106-01] | 197 | 117.40 | 20.13 | 6.53 | 2.52 |  |
| O=C(O)c1cccc2c1CCN2C(=O)c1ccc(F)cc1 [NCGC00432675-01] | 1760 | 81.35 | 20.90 | 5.89 | 4.16 |  |
| CC1CCCN(c2ncnc3c2cnn3-c2ccccc2)C1 (stereo not shown) [Compound 381] |  |  |  |  |  | pSDR50 (clade P) [1, 6]: 5.61; % Activity (max response) [1, 6]: 79.86% |
| Nc1ncc(-c2cnn(CCO)c2)c2scc(-c3ccc(NC(=O)Nc4cccc(F)c4)cc3)c12 [Ilorasertib] |  |  |  |  |  | SDR Ave Max Response [3]: 123.93; SDR Ave Max Response ([4]; PKA-N-HiBiT qHTS, average): 5.66 |
| O=C(O)c1cccc2c1CCN2C(=O)c1ccccc1 [NCGC00432607-01] | 3940 | 65.64 | 14.85 | 5.66 |  |  |
| CN(Cc1ccccc1)C(=O)c1cccc2c1CCN2C(=O)Nc1ccccc1 [NCGC00430102-01] | 279 | 122.30 | 17.23 | 6.38 | 5.03 |  |
| Brc1ccc(-c2cn3cc(Cc4ccccc4)sc3n2)cc1 [Compound 36] |  |  |  |  |  | pSDR50 (clade O) [1, 5]: 5.89; % Activity (max response) [1, 5]: 18.18% |
| Cc1cccc(C)c1-n1c(=O)c2cnc(Nc3ccc(N4CCN(C)CC4)cc3)nc2n2c3ccccc3nc12 [Lck Inhibitor] |  |  |  |  |  | EC50 [4]: 4570 nM |
| Cc1ccc(Cc2cn3cc(-c4ccccc4)nc3s2)cc1 [Compound 98] |  |  |  |  |  | pSDR50 (clade O) [1, 5]: 5.78; % Activity (max response) [1, 5]: 56.11% |
| c1ccc(-n2ncc3c(N4CCCCC4)ncnc32)cc1 [Compound 373] |  |  |  |  |  | pSDR50 (clade P) [1, 6]: 5.48; % Activity (max response) [1, 6]: 80.68% |
| Fc1ccc(Cc2cn3cc(-c4ccccc4)nc3s2)cc1 [Compound 2] |  |  |  |  |  | pSDR50 (clade O) [1, 5]: 5.92; % Activity (max response) [1, 5]: 39.94% |
